The values that follow come from patent publication US20090270479A1, “Genetic and Epigenetic Alterations In the Diagnosis and Treatment of Cancer” (priority 2005, published 2009).

The subject of assay [1] is pRb2/p130 expression in Weri-Rb1 cells. The experiment in a line: Western blot of pRb2/p130 in treated Weri-Rb1 cells. It is filed as cell-based, human. The settings on record: Weri-Rb1 whole cell lysates, treated 24-96 h, vs untreated control after 96 h culture. The method, then:
(§1) Weri-Rb1 cell line and 5-Aza-2-dc DNA methyltransferase inhibitor treatment—Human retinoblastoma cell line (Weri-Rb1 ) obtained from the American Type Culture Collection (ATCC, Manassas, Va., USA) was cultured in RPMI 1640 supplemented with 10% FCS at spin ratio of 1:2 once a week. A volume of […] of 5-Aza-2-dc, a DNA methyltransferase inhibitor (Sigma-Aldrich, St. Louis, Mo., USA) was added to medium culture of treated cells.
Western blotting—Western blot analysis of pRb/p105 and pRb2/p130 was performed on three fresh samples of primary tumors (samples 8-10). Weri-Rb1 cells and one normal retina sample, obtained from a patient who underwent enucleation for painful absolute glaucoma, served as an experimental control. Fresh tissues were immediately frozen in liquid nitrogen. Furthermore, Weri-Rb1 cells treated and untreated with 5-Aza-2-dc at various times were processed for Western blot analysis. Whole tissues lysates were prepared by resuspending homogenized tissues and pelleted cells in lysis buffer (50 mM Tris/HCl, 5 mM EDTA, 250 mM NaCl, 50 mM NaF, 0.1% Triton X-100, 0.1 mM Na3VO4 plus fresh inhibitors). Equal amounts of 100 μg of total extracts were loaded and resolved on a 7 or 10% SDS-PAGE. The gels were then transferred onto a nitrocellulose filter and checked by using 0.1% Ponceau red. […]

Assay [2] has as its system Weri-Rb1 cells. Briefly: FACS analysis of 5-Aza-2-dc treated Weri-Rb1 cells. It is filed as cell-based, human. The settings on record: 2.5 μM. The method, then: as §1
(§2) Cell viability (MTT) and FACS analysis—Quantitative cell viability was measured by colorimetric assay using a cell proliferation kit (MTT) (Roche Molecular Biochemicals, Mannheim, Germany). A total of 5000 cells/well Weri-Rb1 and 5-Aza-2-dc-treated Weri-Rb1 were grown in microtiter plates (96-well) in a final volume of 100 μl culture medium. The incubation period of cell culture was 24, 48 and 96 h in the presence or absence of the 2.5 μM DNA methyltransferase inhibitor. After incubation period, 10 μl MTT labeling reagent was added to each well to a final concentration […]. MTT is cleaved by growing cells to form formazan crystals which allows quantification of cell viability by spectrdphotometric analysis (ELISA) at 550 nm. Cell viability was expressed as the percentage of the absorbance of drug-treated and untreated cells relative to that of the untreated cells of 0 h. […]

In assay [3] the test system is Weri-Rb1 cells. Briefly: Cell viability (MTT) / proliferation of Weri-Rb1 cells. It is filed as cell-based, human. The settings on record: 2.5 μM, after 96 h of treatment, vs untreated. The method, then: as §1, §2
For assay [4], the system named is pRb2/p130 protein in H23 cells. Briefly: Western blot of pRb2/p130 in treated H23 cells. The format is cell-based, human. Particulars: 2.5 μM, observed at 72 hours, maximum at 96 hours. The method, then:
(§3) Cell cultures and treatment—Cell lines were purchased from the American Type Culture Collection (Rockville, Md.). The cells were cultured in DMEM or RPMI1640 medium supplemented with 10% fetal bovine serum and 2 mM L-glutamine. For treatment, cells were seeded at a density of 5×10^5 cells/100-mm tissue culture dish. 2.5 μM of DNA methyltransferase inhibitor (5-AZA-2-deoxicytidine) was added to the culture medium for up 96 hours.
Western blot analysis of pRb2/p130 was performed using total protein lysates from untreated and 5-AZA-2-deoxicytidine treated H23 cells. Whole cell lysates were prepared in lysis buffer (50 mM Tris/HCl, 5 mM EDTA, 250 mM NaCl, 50 mM NaF, 0.1% Triton-X, 0.1 mM Na3VO4 plus fresh inhibitors). Equal amounts of 100 μg of total extracts were loaded and resolved on a 7% SDS-PAGE. The gels were then transferred onto a nitrocellulose filter and checked by using 0.1% Ponceau red. The monoclonal anti-pRb2/p130 (Transduction Laboratories, Ky., USA) was used at a dilution of 1:800.
Background: A western blot detects proteins with antibodies after separation by electrophoresis.

For assay [5], the system named is RB2/p130 mRNA in H23 cells. The experiment in a line: Multiplex RT-PCR of RB2/p130 mRNA in treated H23 cells. The format is cell-based, human. Particulars: 2.5 μM, beginning at 48 hours after treatment, vs basal level. The method, then:
as §3
Multiplex RT-PCR—Multiplex RT-PCR analysis was carried out with 0.2 μg of total RNA from treated and untreated H23 cells. PCR was performed using RB2/p130 primers and β-actin specific primers (SuperScript RT-PCR System, Invitrogen).

A further assay has as its target T1, p107 (human, UniProt P28749 1-1068).
T1 sequence (looked up): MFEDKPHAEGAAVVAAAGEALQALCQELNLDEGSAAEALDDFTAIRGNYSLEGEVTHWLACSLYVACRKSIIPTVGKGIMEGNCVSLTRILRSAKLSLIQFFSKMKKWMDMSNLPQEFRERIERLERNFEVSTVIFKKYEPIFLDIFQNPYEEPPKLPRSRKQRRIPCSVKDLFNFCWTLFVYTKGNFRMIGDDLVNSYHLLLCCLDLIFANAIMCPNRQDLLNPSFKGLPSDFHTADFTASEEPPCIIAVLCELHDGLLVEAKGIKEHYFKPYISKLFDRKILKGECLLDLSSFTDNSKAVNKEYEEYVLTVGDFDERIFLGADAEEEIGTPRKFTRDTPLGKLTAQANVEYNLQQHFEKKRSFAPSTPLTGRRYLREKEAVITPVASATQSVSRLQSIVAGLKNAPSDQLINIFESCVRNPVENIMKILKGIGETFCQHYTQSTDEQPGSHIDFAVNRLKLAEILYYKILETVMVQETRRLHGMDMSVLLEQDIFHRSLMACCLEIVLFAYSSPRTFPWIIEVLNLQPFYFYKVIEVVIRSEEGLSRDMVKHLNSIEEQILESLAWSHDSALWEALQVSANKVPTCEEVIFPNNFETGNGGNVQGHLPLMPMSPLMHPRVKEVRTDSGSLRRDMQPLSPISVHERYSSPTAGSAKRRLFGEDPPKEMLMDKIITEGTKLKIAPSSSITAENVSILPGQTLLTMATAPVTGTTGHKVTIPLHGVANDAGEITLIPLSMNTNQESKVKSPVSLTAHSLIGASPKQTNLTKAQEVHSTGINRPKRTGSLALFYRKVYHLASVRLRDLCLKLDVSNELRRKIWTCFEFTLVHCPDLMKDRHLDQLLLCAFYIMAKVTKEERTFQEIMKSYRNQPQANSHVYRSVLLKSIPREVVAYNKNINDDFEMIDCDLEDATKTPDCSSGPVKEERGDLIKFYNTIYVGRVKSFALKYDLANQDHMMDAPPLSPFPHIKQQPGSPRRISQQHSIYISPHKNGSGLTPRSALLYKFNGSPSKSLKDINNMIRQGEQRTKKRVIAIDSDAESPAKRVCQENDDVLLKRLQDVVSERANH
Briefly: co-immunoprecipitation with anti-PAI-2 antibody from nuclear and cytoplasmic lysates of primary human corneal and conjunctival epithelial cells, Western blot with anti-p107. The text has this: Western blot and chromatin immuoprecipitation assay—Cytoplasmic and nuclear proteins were extracted from 12 couples of paired normal human corneal and conjunctival epithelial cells by using the PARIS kit (Ambion) according to the manufacturer's instructions. Efficient cytoplasmic and nuclear fractionation was confirmed by Western blotting analysis using anti-GAPDH antibody for the cytoplasmic fraction and anti Oct-1 antibody for the nuclear fraction. Immunoprecipitation experiments were performed using the cytoplasmic and nuclear fractions with PAI-2 as immunoprecipitating antibody (N-18, Santa Cruz Biotechnology, Calif.). The presence of pRb2/p130, Rb1/p105 and p107 in both PAI-2 nuclear and cytoplasmic precipitates was assessed with anti-pRb2/p130, anti-Rb1/p105 and p107 antibodies (211.6, C-15 and C-18, respectively; Santa Cruz Biotechnology, Calif.) by Western blotting.
In order to assess whether PAI-2 associated with the retinoblastoma family proteins, PAI-2 was immunoprecipitated from nuclear and cytoplasmic lysates of twelve paired couples of normal primary human corneal and conjunctival epithelial cells. The immunoprecipitates were then analyzed by Western blotting using anti-pRb2/p130, anti-Rb1/p105, anti-p107 and anti-PAI-2 antibodies. For all the cell lines analyzed, anti-PAI-2 antibody co-immunoprecitated pRb2/p130 and Rb1/p105 from both nuclear and cytoplasmic fractions. […]

Where [6] appears, read: listed as 5-AZA-2-deoxycytidine.

Take `Nc1ncn([C@H]2C[C@H](O)[C@@H](CO)O2)c(=O)n1` [5-Aza-dC, 5-Aza-2-deoxycytidine]: in assay [1], the “expression of endogenous pRb2/p130” value was “increased expression”. Besides, the “amount of apoptotic cells” value in the assay on Weri-Rb1 cells [2] (96 h, % of treated cells (control 6%)) was determined as 20%. The same molecule registered a G1 arrested cells in the assay with Weri-Rb1 cells [2] (after 24 h, % of treated cells (control 30%)) of 40%. Moreover, the “number of cells (proliferation rate)” value in the assay with Weri-Rb1 cells [3] is recorded as “markedly reduced”. The “pRb2/p130 protein level, active hypophosphorylated form” value is reported as “increase” in assay [4] and “increased” in assay [4] (setting [6]). The “RB2/p130 mRNA level” value is given as “increase” in assay [5] and “increased” in assay [5] (setting [6]).

B1: plasminogen activator inhibitor type-2 (other, human, UniProt P05120 1-415, looked up)
chain: MEDLCVANTLFALNLFKHLAKASPTQNLFLSPWSISSTMAMVYMGSRGSTEDQMAKVLQFNEVGANAVTPMTPENFTSCGFMQQIQKGSYPDAILQAQAADKIHSSFRSLSSAINASTGNYLLESVNKLFGEKSASFREEYIRLCQKYYSSEPQAVDFLECAEEARKKINSWVKTQTKGKIPNLLPEGSVDGDTRMVLVNAVYFKGKWKTPFEKKLNGLYPFRVNSAQRTPVQMMYLREKLNIGYIEDLKAQILELPYAGDVSMFLLLPDEIADVSTGLELLESEITYDKLNKWTSKDKMAEDEVEVYIPQFKLEEHYELRSILRSMGMEDAFNKGRANFSGMSERNDLFLSEVFHQAMVDVNEEGTEAAAGTGGVMTGRTGHGGPQFVADHPFLFLIMHKITNCILFFGRFSSP
notes: Endogenous protein, immunoprecipitated with anti-PAI-2 antibody; also called PAI-2
Regarding B1, the binding result with p107 was “no binding”.
